Data published in patent US20170335402A1, “DOT1L INHIBITORS AND USES THEREOF” (Baylor College of Medicine, priority 2014, published 2017).
“Also recorded” adds a separate entry of the source.

Columns and labels:
[1] = test system: H3K79me2; assay: ELISA of H3K79me2 in OCI AML3 xenograft tumors; format: in vivo, nude rat
Protocol: In vivo studies were conducted. Human acute myeloid leukemia cells OCI-AML3 were implanted subcutaneously into the right flank of female athymic nude rats (Hsd:RH-Foxn1rnu, Harlan Laboratories, Inc.). EPZ-5676 was delivered by continuous IV infusion via a catheter surgically implanted in the femoral vein of each rat. Animals were separated into either an efficacy or PK/PD cohort. Both cohorts were dosed by continuous IV infusion with 35 or 70 mg/kg/day. A control group received continuous IV infusion of the vehicle, 5% hydroxypropyl-β-cyclodextrin (HPBCD) in saline. Efficacy was determined after 21 days of drug treatment followed by a 7 day drug holiday. Animals assessed for PK/PD were dosed for 14 days and euthanized following the completion of infusion. All rats were weighed and tumors calipered twice weekly until the end of study. At the completion of the study animals were euthanized by terminal cardiac puncture under isoflurane anesthesia. Euthanized rats were sampled for tumor tissue. […]
For isolation of histones from bone marrow, cells were lysed in 250 μL nuclear extraction buffer (10 mM Tris-HCl, 10 mM MgCl2, 25 mM KCl, 1% Triton X-100, 8.6% Sucrose, plus a Roche protease inhibitor tablet 1836145). […] Histones were quantified using the BCA protein assay (Pierce, 23225). […]

[2] = test system: OCI AML3 subcutaneous tumors; assay: Nude rat OCI-AML3 xenograft study, tumor volume; format: in vivo; details: 21 days
Protocol: (§1) In vivo studies were conducted. Human acute myeloid leukemia cells OCI-AML3 were implanted subcutaneously into the right flank of female athymic nude rats (Hsd:RH-Foxn1rnu, Harlan Laboratories, Inc.). EPZ-5676 was delivered by continuous IV infusion via a catheter surgically implanted in the femoral vein of each rat. Animals were separated into either an efficacy or PK/PD cohort. Both cohorts were dosed by continuous IV infusion with 35 or 70 mg/kg/day. A control group received continuous IV infusion of the vehicle, 5% hydroxypropyl-β-cyclodextrin (HPBCD) in saline. Efficacy was determined after 21 days of drug treatment followed by a 7 day drug holiday. Animals assessed for PK/PD were dosed for 14 days and euthanized following the completion of infusion. All rats were weighed and tumors calipered twice weekly until the end of study. At the completion of the study animals were euthanized by terminal cardiac puncture under isoflurane anesthesia. Euthanized rats were sampled for tumor tissue. Tumors were collected in an RNase-free environment, bisected, snap frozen in liquid nitrogen, pulverized and finally stored at (−80° C.).

[3] = test system: MEIS1 and HOXB3; assay: qRT-PCR of MEIS1 and HOXB3 in OCI AML3 xenograft tumors; format: in vivo, nude rat; details: 21 days
Protocol: as §1
For the isolation of RNA, 10 mg of tumor powder was lysed in 600 μL RLT Lysis Buffer (Qiagen) and homogenized with a Qiashredder column (Qiagen, 79656) following the manufacturer's protocol. […] MEIS1 and HOXB3 mRNA levels were assessed and normalized to GAPDH by qRT-PCR.

[4] = test system: MV411 cells; assay: Annexin V binding (AVB) flow cytometry apoptosis assay; format: cell-based, human; details: MV4-11; dose-dependent, FIG. 4
Protocol: (§2) For the Annexin V apoptosis assay, 1×10^6 SYC-522-, EPZ004777- or DMSO-treated cells were washed in PBS, resuspended in Ca/HEPES buffer (10 mM HEPES, pH7.4; 140 mM NaCl; 2.5 mM CaCl2) and incubated with Annexin V-APC (BD Pharmingen, San Jose, Calif.) for 30 min then analyzed by flow cytometry.
(§3) Cells were harvested at each re-plating of the cell proliferation assay described above then split for simultaneous analysis of apoptosis, cell cycle, and differentiation. Apoptosis was determined by Annexin V binding (AVB) flow cytometry assay. The harvested cells were re-suspended in 1×AVB buffer, stained with APC-conjugated Annexin V (BD), then analyzed by flow cytometry. For cell cycle analysis, cells were pelleted, washed in PBS with 0.5% bovine serum albumin, then fixed in 70% ice-cold methanol. The fixed cells were then incubated in PBS with 100 μg/mL RNAse (Invitrogen) for 15 minutes in a 37° C. water bath. Propidium iodide (PI) in PBS at a final concentration of 25 μg/mL was then added and the cells were analyzed by flow cytometry. For differentiation, cells were pelleted, and stained with APC-conjugated CD14 then washed and re-suspended in media containing PI to exclude dead cells. All analyses were performed using an LSR II flow cytometer (BD biosciences) and the data were analyzed using FlowJo (TreeStar, V8.8.7).

[5] = test system: OCI AML2 cells; assay: as above; format: cell-based, human; details: increasing concentrations
Protocol: as §2, §3

[6] = test system: OCI AML3 cells; assay: as above; format: cell-based, human; details: increasing concentrations
Protocol: as §2, §3

[7] = test system: H3K79me2 in OCI AML2 cells; assay: Immunoblot analysis of cellular H3K79 methylation; format: cell-based, human
[8] = test system: OCI AML2 cells; assay: Cell differentiation analysis, CD14 flow cytometry; format: cell-based, human; details: dose dependent
Protocol: (§4) Cell differentiation analysis was performed by staining with fluorescently labeled marker for cell differentiation, CD14 followed by flow cytometry. Propidium iodide was added prior to flow cytometry analysis to exclude dead cells.
as §3

[9] = test system: OCI AML3 cells; assay: Cell differentiation analysis, CD14 flow cytometry; format: cell-based, human; details: dose dependent
Protocol: as §4, §3

[10] = test system: H3K79me2 in OCI AML3 cells; assay: Immunoblot analysis of cellular H3K79 methylation; format: cell-based, human
[11] = test system: DNMT3A mutant cells; assay: HOX gene expression in DNMT3A mutant cells (FIG. 10); format: cell-based, human; details: FIG. 10, day 6 and day 10 of treatment
Protocol: RNA was extracted from OCI AML2 and OCI AML3 cells treated with 3 μM EPZ004777 or DMSO control using RNeasy RNA isolation kit (Qiagen) per manufacturer's protocol. RNA was quantified using Nanodrop instrument and 300-1000 ng (equal quantities for EPZ004777 treated and DMSO controls) of RNA were reverse transcribed using the SuperScript® III First-Strand Synthesis System (Invitrogen). Reverse transcription quantitative PCR was then performed in triplicate using predesigned TaqMan primer and probe sets for HOXA9 (Hs00365956_m1), MEIS1 (Hs01017441_m1), HOXB8 (Hs00256885_m1), HOXB3 (Hs01587922_m1), and GAPDH (Hs02758991_ml) (FAM-MGB; Applied Biosystems) for 30 cycles using an AbiPrism 7900HT (Applied Biosystems). Target gene numbers were normalized to the ribosomal RNA 18s (VIC-MGB; Applied Biosystems) and fold-change determined by the 2^−ΔΔCT equation.

[12] = test system: MV4-11 cells; assay: Cell proliferation and viability assay (trypan blue exclusion); format: cell-based, human; details: MV4-11 (MLL-rearranged); dose-dependent, FIG. 4
Protocol: (§5) Patient AML cell lines were plated in media and treated with the DOT1L inhibitors SYC-522, EPZ004777 or DMSO control was added at the indicated concentrations. Cells counted, washed and re-plated in fresh compound at equal densities every 3-4 days for 12 days. Cell growth and viability were followed by serial cell counts and trypan blue exclusion staining.
(§6) Exponentially growing cells were plated, in triplicate, in 24-well plates at a density of 2×10^5/mL in a final volume of 1 mL. For dose dependent assays, cells were incubated in increasing concentrations of SYC522 up to 10 μM or EPZ004777 up to 24 μM or DMSO control. For time-dependent assays, cells were incubated in 3 μM EPZ004777 or DMSO control. Every 2-3 days media and compound was replaced and cells were split back to a density of 2×10^5/mL. At each re-plating viable cells number was determined by trypan blue exclusion. Total cell number is expressed as split-adjusted viable cells per mL.

[13] = test system: OCI AML2 cells; assay: as above; format: cell-based, human; details: OCI AML2; escalating doses, 10-14 days
Protocol: as §5, §6

[14] = test system: OCI AML3 cells; assay: as above; format: cell-based, human; details: OCI AML3; escalating doses, 10-14 days
Protocol: as §5, §6

[15] = 35 mg/kg/day continuous IV infusion
[16] = 70 mg/kg/day continuous IV infusion

SMILES	H3K79me2 level [1, 15]	H3K79me2 level [1, 16]	tumor growth (tumor volume) [2, 15]	tumor growth (tumor volume) [2, 16]	expression of oncogenic genes including MEIS1 and HOXB3 in tumors [3, 15]	expression of oncogenic genes including MEIS1 and HOXB3 in tumors [3, 16]	induction of apoptosis [4]	induction of apoptosis (Annexin V binding) [5]	induction of apoptosis (Annexin V binding) [6]	cellular H3K79 methylation [7]	terminal differentiation (CD14 staining) [8]	terminal differentiation (CD14 staining) [9]	cellular H3K79 methylation [10]	oncogenic HOX gene expression [11]	cell proliferation [12]	cell growth / proliferation [13]	cell growth / proliferation [14]
CC(C)N(C[C@H]1O[C@@H](n2cnc3c(N)ncnc32)[C@H](O)[C@@H]1O)[C@H]1C[C@@H](CCc2nc3cc(C(C)(C)C)ccc3[nH]2)C1 [EPZ-5676]	significant reduction of H3K79me2	significant reduction of H3K79me2	inhibited in a dose dependent fashion	inhibited in a dose dependent fashion reaching statistical significance	repression of oncogenic genes	repression of oncogenic genes											
CC(C)N(CCCNC(=O)Nc1ccc(C(C)(C)C)cc1)CC1OC(n2cnc3c(N)ncnc32)C(O)C1O (centres unmarked) [SYC-522]							induction of apoptosis	induction of apoptosis	induction of apoptosis	inhibit H3K79 methylation in a time-dependent manner; also recorded: inhibited in a dose- and time-dependent fashion	terminal differentiation	terminal differentiation	inhibit H3K79 methylation in a time-dependent manner; also recorded: inhibited in a dose- and time-dependent fashion	repressed in a time-dependent fashion	reduction of cell proliferation	decreased proliferation; also recorded: inhibited growth in a dose-dependent fashion	decreased proliferation; also recorded: inhibited growth in a dose-dependent fashion
